Assay results from US9057727B2, “Screening methods using G-protein coupled receptors and related compositions” (The General Hospital Corporation, priority 2007, dated 2015).
“Also recorded” adds a separate entry of the source.

Key:
[1] = tested on: opossum kidney (OK) cell line; test: Phosphate uptake inhibition in opossum kidney cells; type: cell-based; settings: 10 minute exposure, 1×10^−7 M
Description: Data are means (±s.e.m.) of two experiments, each performed in duplicate.
Inhibition of phosphate uptake was assessed using the opossum kidney (OK) cell line, which are derived from the renal proximal tubule.
Cells were treated for 10 minutes at 37° C. with media (vehicle) or media containing a peptide ligand (1×10^−7 M); then (t=0), the cells were then rinsed three times with media and incubated in alone at 37° C. for varying times. At each time point, ^32PO4 was then added to the media, and after five minutes of incubation, the cells were washed, lysed, and the lysate was counted for ^32P beta radioactivity by liquid scintillation counting.

[2] = Bone turnover markers (PINP, osteocalcin, CTX) in mice, daily treatment; type: in vivo; settings: 5 nmol/kg i.v. daily, days 6 and 13
Description: FIGS. 30A-30F are graphs showing the effects of PTH analogs on plasma bone markers in mice. Mice (C57BL/6, males, 3 months) were intravenously injected daily with either vehicle, rPTH(1-34) (SEQ ID NO:130), M-PTH(1-34) (SEQ ID NO:12), or (EALK)-PTHrP(1-30) (SEQ ID NO:90) (5 nmol/kg; n=7 group) for 14 days. Markers of bone turnover (PINP, CTX and osteocalcin) were assessed by ELISA in blood at day 6 (FIGS. 30A, 30C, and 30E, respectively) and 13 (FIGS. 30B, 30D, and 30F, respectively).
A second set of experiments was performed in which mice received 5 nmol/kg intravenous daily treatment with rPTH(1-34), M-PTH(1-34), or EALK-PTHrP(1-30) for 14 days. Blood samples were taken at days 6 and 13, and markers of bone turnover (PINP, osteocalcin and CTX) were assessed by ELISA.

NaPi-IIa = NaPi-IIa staining in renal PT cells of injected mice; settings: mouse, in vivo
Excerpt: To help elucidate further the signaling mechanisms by which PTH ligands regulate renal phosphate transport, we developed a derivative of M-PTH(1-28) that is defective for PLC/PKC signaling, yet retains potent cAMP/PKA signaling activity. Such a peptide allows for study of the relative roles of the PKA and PKC signaling pathways in modulating the function and surface expression of the Pi transporters NaPi-IIa and NaPi-IIc in proximal tubule (PT) cells. The analog M-PTH(1-28) (M=Ala^1,Aib^3,Gln^10, Har^11,Trp^14,Arg^19), a potent agonist for cAMP and IP3 signaling pathways, induces, when injected into mice, prolonged hypophosphatemic and hypercalcemic effects.
(§1) To impair PLC signaling, we replaced alanine at position 1 of M-PTH(1-28) with tryptophan, in accordance with findings of Bisello and colleagues (J Biol Chem 277:38524-30, 2002) showing that such bulky substitutions at this position selectively impair PLC signaling.

[3] = Bone structural parameters after two-week daily treatment in mice (Piximus, microCT); type: in vivo
Description: FIG. 31 is a set of images showing the effects of two-week daily treatment of R^0 and RG ligands on trabecular and cortical bone structure in mice. Mice (C57BL/6, males, 3 months) were treated (i.v.) with either vehicle, rPTH(1-34) (SEQ ID NO:130), M-PTH(1-34) (SEQ ID NO:12), or E^18,A^22,L^25,K^26 (EALK)PTHrP(1-30) (SEQ ID NO:90) (5 nmol/kg; n=7 group), daily for 14 days, and femurs were analyzed by μCT.
As described above, mice were treated intravenously) with either vehicle, rPTH(1-34), M-PTH(1-34), or EALK-PTHrP(1-30) daily for 14 days.

[4] = Plasma phosphate in mice (20 nmol/kg); type: in vivo
Excerpt: as §1

[5] = target: T1, human PTHR, G protein-uncoupled conformation (R^0) (Homo sapiens, UniProt Q03431); test: Competition binding to R0 conformation of hPTHR (COS-7 membranes, GTPγS, 125I-PTH(1-34) tracer); settings: Table 5; fold weaker affinity for R0 than RG
T1 construct: expressed in transfected cells; host or cells: COS-7, transient (Fugene-6)
T1 sequence (Q03431 27-593): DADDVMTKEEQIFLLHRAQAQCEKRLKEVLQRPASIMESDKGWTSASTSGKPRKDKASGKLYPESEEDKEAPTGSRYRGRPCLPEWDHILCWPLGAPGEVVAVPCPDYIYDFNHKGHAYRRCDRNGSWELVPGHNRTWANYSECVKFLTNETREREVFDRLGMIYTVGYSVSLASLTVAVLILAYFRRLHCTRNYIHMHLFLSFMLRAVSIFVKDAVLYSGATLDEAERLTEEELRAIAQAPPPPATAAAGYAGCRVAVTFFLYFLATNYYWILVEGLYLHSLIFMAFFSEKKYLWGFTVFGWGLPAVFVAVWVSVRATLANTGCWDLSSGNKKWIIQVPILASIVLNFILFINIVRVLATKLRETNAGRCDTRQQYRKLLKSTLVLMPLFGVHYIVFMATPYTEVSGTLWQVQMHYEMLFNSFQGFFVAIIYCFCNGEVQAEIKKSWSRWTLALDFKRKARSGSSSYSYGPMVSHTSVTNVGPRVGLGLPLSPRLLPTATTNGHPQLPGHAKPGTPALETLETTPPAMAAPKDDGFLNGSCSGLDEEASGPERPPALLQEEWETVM
In short: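 Bound versus free radioligand was separated by vacuum filtration after 90 min incubation of COS-7 hPTHR membranes (20-100 μg/mL) with tracer and competing peptides. Non-specific binding came from a saturating unlabeled analog.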

NaPi-IIc = NaPi-IIc immunostaining in renal PT cells of injected mice; type: in vivo; settings: interval 4 to 6 h
Excerpt: as §1

[6] = Serum and urinary calcium and phosphate in TPTX rats; type: in vivo; settings: single i.v. 1.25 nmol/kg
Description: Five-week-old male Crl:CD(SD) rats were obtained from Charles River Laboratories Japan, Inc. (Kanagawa, Japan) and acclimated for 1 week under standard laboratory conditions at 20-26° C. and 35-75% humidity. The rats received free access to tap water and standard rodent chow (CE-2) containing 1.1% calcium, 1.0% phosphate and 250 IU/100 g of vitamin D3 (Clea Japan, Inc., Shizuoka, Japan).
Thyroparathyroidectomy (TPTX) was performed on six-week-old rats. TPTX rats were selected for use based on serum ionized calcium (iCa) levels (<1.0 mM) in samples taken from tail vein bleeding at 24 hours or […] after the operation using the electrode method. The TPTX rats were divided into six groups of five animals based on iCa levels at 48 hours after the operation. TPTX-vehicle group intravenously received the vehicle alone (10 mM acetic acid solution) at a dose of 1 ml/kg body weight administered to the tail vein.
Blood was obtained from the tail vein for detecting iCa at 1, 2, 4, 6, and 24 hours after each injection. Ionized calcium levels were determined by the electrode method using an autoanalyzer (M-634, Chiba Corning Diagnostics Co. Ltd., Tokyo, Japan).
We also studied the effects of the M-PTH(1-14)/PTHrP(15-36) hybrid peptide (SP-PTH) on serum and urinary calcium and phosphate.

hPTHR [7] = target: T2, hPTHR (Homo sapiens, UniProt Q03431); test: Delayed cAMP response after ligand wash-out in HKRK-B64 cells; type: cell-based; design: expressed in transfected cells; settings: HKRK-B64, 60 minutes after wash-out; read-out: cAMP response after wash-out, % of maximum response
T2 sequence (Q03431 27-593): T1 sequence (Q03431 27-593)
Description: The cells were pre-treated for 10 minutes with either buffer alone (basal) or buffer containing ligand (100 nM); at t=0, the cells were washed, incubated in buffer for the times indicated (wash-out phase), treated with 3-isobutyl-1-methylxanthine (IBMX) for five minutes, and then assessed for intracellular cAMP. […] The cAMP level in cells treated with IBMX in the absence of ligand was 2.0±0.3 pmole/well. Data are means (±s.e.m.) of three experiments, each performed in duplicate. […] Analogs were similarly assessed in HKRK-B64 cells (90,000 hPTHRs/cell) at a single time-point, 60 minutes after ligand wash-out (FIG. 5B). For each peptide, the data are expressed as a percentile of the maximum cAMP responses (indicated in side panel) produced in cells treated concomitantly with that ligand and IBMX for 10 minutes and omitting the wash-out phase. […] Data are means (±s.e.m) of four experiments, each performed in triplicate.
The capacity of the ligands to produce sustained (or delayed) cAMP signaling responses was further examined in HKRK-B64 cells, which express the hPTHR at a more physiological level than do HKRK-B7 cells (90,000 per cell vs. 950,000/cell).
The capacities of ligands to produce a delayed cAMP response in cells after a brief exposure to the ligand was assessed as follows. The cells in 24-well plates were rinsed in binding buffer (50 mM Tris-HCl, pH 7.7, 100 mM NaCl, 5 mM KCl, 2 mM CaCl2, 5% heat-inactivated horse serum, 0.5% heat-inactivated fetal bovine serum) and then incubated in binding buffer with or without a peptide ligand (1×10^−7 or 3×10^−7 M) for 10 minutes at room temperature; the buffer was then removed, the cells were washed three times with binding buffer, incubated further in binding buffer for varying times (1 to 120 minutes); the buffer was then replaced by binding buffer containing IBMX (2 mM), and after an additional five minute incubation, the intracellular cAMP was quantified.

hPTHR [8] = target: T2, hPTHR; test: Delayed cAMP response after ligand wash-out in HKRK-B7 cells; type: cell-based; design: expressed in transfected cells
Description: The cells were pre-treated for 10 minutes with either buffer alone (basal) or buffer containing ligand (100 nM); at t=0, the cells were washed, incubated in buffer for the times indicated (wash-out phase), treated with 3-isobutyl-1-methylxanthine (IBMX) for five minutes, and then assessed for intracellular cAMP. […] Data are means (±s.e.m.) of three experiments, each performed in duplicate. […] Analogs were similarly assessed in HKRK-B64 cells (90,000 hPTHRs/cell) at a single time-point, 60 minutes after ligand wash-out (FIG. 5B). For each peptide, the data are expressed as a percentile of the maximum cAMP responses (indicated in side panel) produced in cells treated concomitantly with that ligand and IBMX for 10 minutes and omitting the wash-out phase. […] Data are means (±s.e.m) of four experiments, each performed in triplicate.
Cells were thus treated with a ligand for ten minutes, washed to remove unbound ligand. At various times after washing, IBMX was applied for five minutes, and the resulting intracellular cAMP was measured. […]
Following treatment of cells with a ligand, the intracellular cAMP levels were measured by radioimmuno assay, as described (Shimizu et al., J. Biol. Chem. 276:49003-49012 (2001)). The capacities of ligands to produce a delayed cAMP response in cells after a brief exposure to the ligand was assessed as follows. […]

hPTHR [9] = target: T2, hPTHR; test: Radioligand dissociation from PTHR in HKRK-B7 membranes with or without GTPγS; type: binding; design: expressed in transfected cells
Description: At each time point, aliquots were removed from the reaction tubes and immediately subjected to rapid vacuum filtration using a 96-well vacuum filtration plate to separate bound from free radioactivity. Non-specific binding was determined in tubes containing the unlabeled ligand (5×10^−7 M) during both the pre-incubation and dissociation phases. The specifically bound radioactivity (SB) at each time point was then expressed as the percent of the specific binding observed at t=0. […] Curves were fit to the data using either a two-phase (FIGS. 1A and 1B) or single phase (FIG. 1C) exponential decay equation. […]
Reactions contained a total membrane protein concentration of 20 to 100 μg/mL, and a total radioactivity concentration of approximately 150,000 cpm/ml. […] At the end of the reaction, bound and free radioligand were separated by vacuum filtration using a 96-well vacuum filter plate and vacuum filter apparatus (Multi-Screen system with Durapore HV, 0.65 μM filters; Millipore Corp., Milford, Mass.); the air-dried filters were then detached from the plate and counted for gamma radioactivity using a gamma counter.
These studies were performed as bulk reactions in 15 mL round-bottom polystyrene snap-cap tubes (Falcon) (total reaction volume=5.0 ml). […] The specifically bound radioactivity at each time point was calculated as a percent of the radioactivity specifically bound at t=0.

rat PTHR = target: T3, rat PTHR (Rattus norvegicus, UniProt P25961); test: GTPγS inhibition of equilibrium radioligand binding, ROS17/2.8 membranes; design: the rat osteoblastic cell line ROS17/2.8, which endogenously expresses the rat PTHR; endogenous in cells; host or cells: ROS 17/2.8 rat osteosarcoma cells (membranes or intact cells)
T3 sequence (P25961 27-591): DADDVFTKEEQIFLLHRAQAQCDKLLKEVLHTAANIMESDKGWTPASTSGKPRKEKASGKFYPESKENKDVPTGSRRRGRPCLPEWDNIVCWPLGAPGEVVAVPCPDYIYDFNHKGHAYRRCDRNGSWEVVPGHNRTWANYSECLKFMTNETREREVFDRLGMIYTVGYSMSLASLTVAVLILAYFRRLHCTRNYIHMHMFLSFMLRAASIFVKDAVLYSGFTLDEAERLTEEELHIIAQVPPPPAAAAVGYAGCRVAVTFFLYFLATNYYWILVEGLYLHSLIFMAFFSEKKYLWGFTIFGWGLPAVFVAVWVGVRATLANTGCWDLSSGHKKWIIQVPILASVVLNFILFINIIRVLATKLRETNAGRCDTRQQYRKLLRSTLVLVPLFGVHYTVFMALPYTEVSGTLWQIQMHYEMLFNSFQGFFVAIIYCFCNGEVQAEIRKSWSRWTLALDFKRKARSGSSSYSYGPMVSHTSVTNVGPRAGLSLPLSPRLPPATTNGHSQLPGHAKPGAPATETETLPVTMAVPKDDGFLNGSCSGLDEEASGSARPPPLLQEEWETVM
Description: FIGS. 2A and 2B are graphs showing GTPγS sensitivity of PTH and PTHrP analog binding to the human and rat PTHRs. Radioligand analog binding to the PTHR in membranes prepared from HKRK-B7 (FIG. 2A) or ROS 17/2.8 cells (FIG. 2B) was assessed under near-equilibrium conditions in the absence or presence of varying concentrations of GTPγS. Data are expressed as a percent of radioactivity specifically bound (SB) in the absence of GTPγS. […] The radioligands studied were ^125I-[Nle^8,21,Tyr^34]PTH(1-34)NH2 (SEQ ID NO:123); [Tyr^36]PTHrP(1-36)NH2 (SEQ ID NO:124); [Ile^5,Tyr^36]PTHrP(1-36)NH2 (SEQ ID NO:125) and [Aib^1,3,Nle^8,Gln^10,Har^11,Ala^12,Trp^14,Tyr^15]hPTH(1-15)NH2 (SEQ ID NO:126).
The effects of GTPγS on the binding of these radioligands to the PTHR under approximate-equilibrium conditions was assessed. by incubating with cell membranes for 90 minutes in the absence or presence of GTPγS at varying concentrations. […]
Binding reactions performed with ^125I-[Aib^1,3,M]PTH(1-15) radioligand were assembled and incubated in the wells of the 96-well, Multi-Screen vacuum filtration plates. […] For both radioligands, the non-specific binding was determined in reactions containing a saturating concentration of the unlabeled analog of the radioligand. The specifically bound radioactivity was calculated as a percent of the radioactivity specifically bound in the absence of a competing ligand or GTPγS.

[10] = Piximus, mice, 5 nmol/kg i.v. daily 14 days

CC[C@H](C)[C@H](NC(=O)[C@H](CCC(=O)O)NC(=O)[C@H](CO)NC(=O)[C@@H](NC(=O)[C@H](C)N)C(C)C)C(=O)N[C@@H](CCC(N)=O)C(=O)N[C@@H](CC(C)C)C(=O)N[C@@H](CCSC)C(=O)N[C@@H](Cc1c[nH]cn1)C(=O)N[C@@H](CC(N)=O)C(=O)N[C@@H](CC(C)C)C(=O)NCC(=O)N[C@@H](CCCCN)C(=O)N[C@@H](Cc1c[nH]cn1)C(=O)N[C@@H](CC(C)C)C(=O)N[C@@H](C)C(=O)N[C@@H](CO)C(=O)N[C@H](C(=O)N[C@@H](CCC(=O)O)C(=O)N[C@@H](CCCNC(=N)N)C(=O)N[C@@H](CCSC)C(=O)N[C@@H](CCC(N)=O)C(=O)N[C@@H](Cc1c[nH]c2ccccc12)C(=O)N[C@@H](CC(C)C)C(=O)N[C@@H](CCCNC(=N)N)C(=O)N[C@@H](CCCCN)C(=O)N[C@@H](CCCCN)C(=O)N[C@@H](CC(C)C)C(=O)N[C@@H](CCC(N)=O)C(=O)N[C@@H](CC(=O)O)C(=O)N[C@H](C(=O)N[C@@H](Cc1c[nH]cn1)C(=O)N[C@@H](CC(N)=O)C(=O)N[C@@H](Cc1ccccc1)C(N)=O)C(C)C)C(C)C [PTH(1-34), reference compound]
duration of phosphate uptake inhibition, in words [1]: much shorter duration of phosphate uptake inhibition
effect on bone turnover markers, in words [2]: only minor effects on bone markers
apical and cytoplasmic NaPi-IIa staining, in words (NaPi-IIa): returned to vehicle control levels at 6 h
Lumbar Spine BMD [3, 10]: 0.0464 ± 0.0002 g/cm^2
Total Femur BMD [3, 10]: 0.0615 ± 0.0003 g/cm^2
Conn-Dens. ([3]; microCT distal femur): 116 ± 8 1/mm^3
Cort Th. ([3]; microCT distal femur): 229 ± 11 μm
Tb · N ([3]; microCT distal femur): 4.02 ± 0.14 1/mm
Tb · Th ([3]; microCT distal femur): 57.5 ± 1.4 μm
TbSp ([3]; microCT distal femur): 246 ± 10 μm
TrabecularBV/TV ([3]; microCT distal femur): 17.4 ± 1.2%
BA ([3]; microCT mid femur): 0.839 ± 0.032 mm^2
BA/TA ([3]; microCT mid femur): 38.7 ± 0.7%
Cort Th. ([3]; microCT mid femur): 172 ± 5 μm
MA ([3]; microCT mid femur): 1.33 ± 0.02 mm^2
TA ([3]; microCT mid femur): 2.17 ± 0.05 mm^2
time of maximal suppression of plasma phosphate [4]: 2 h
time of recovery of plasma phosphate to vehicle control levels [4]: 4 h
R0:RG [5]: five
NaPi-IIc immunostaining, in words (NaPi-IIc): unchanged
serum calcium (sCa) and serum phosphorus (sPi), in words [6]: transiently increased serum calcium (sCa) and decreased serum phosphorus (sPi) levels at 1 hr, but not to the normal range
urinary calcium 0-6 hours, in words [6]: did not change
urinary phosphate 0-6 hours, in words [6]: did not change
Emax (hPTHR [7]): 47%
time course of cAMP responses after wash-out compared with other ligands, in words (hPTHR [8]): not different from those induced by PTHrP(1-36); also recorded: nearly identical to those produced by Ile^5-PTHrP(1-36)

^125I[Tyr^36]PTHrP(1-36)NH2 [^125I-PTHrP(1-36)]
fraction of complexes stable, decaying slowly (hPTHR [9]; absence of GTPγS): 68%
fraction of complexes unstable, decaying rapidly (hPTHR [9]; with GTPγS): 72%
sensitivity of binding to GTPγS, in words (rat PTHR): strongly inhibited
